ChEMBL document CHEMBL3039007, “Structure-based identification of OATP1B1/3 inhibitors” (Mol Pharmacol, 2013)

Columns and labels:
[1] = target: T1, Solute carrier organic anion transporter family member 1B1 (Homo sapiens, UniProt Q9Y6L6); conditions: chinese hamster, cho, 10 µM
T1 sequence (Q9Y6L6 whole entry): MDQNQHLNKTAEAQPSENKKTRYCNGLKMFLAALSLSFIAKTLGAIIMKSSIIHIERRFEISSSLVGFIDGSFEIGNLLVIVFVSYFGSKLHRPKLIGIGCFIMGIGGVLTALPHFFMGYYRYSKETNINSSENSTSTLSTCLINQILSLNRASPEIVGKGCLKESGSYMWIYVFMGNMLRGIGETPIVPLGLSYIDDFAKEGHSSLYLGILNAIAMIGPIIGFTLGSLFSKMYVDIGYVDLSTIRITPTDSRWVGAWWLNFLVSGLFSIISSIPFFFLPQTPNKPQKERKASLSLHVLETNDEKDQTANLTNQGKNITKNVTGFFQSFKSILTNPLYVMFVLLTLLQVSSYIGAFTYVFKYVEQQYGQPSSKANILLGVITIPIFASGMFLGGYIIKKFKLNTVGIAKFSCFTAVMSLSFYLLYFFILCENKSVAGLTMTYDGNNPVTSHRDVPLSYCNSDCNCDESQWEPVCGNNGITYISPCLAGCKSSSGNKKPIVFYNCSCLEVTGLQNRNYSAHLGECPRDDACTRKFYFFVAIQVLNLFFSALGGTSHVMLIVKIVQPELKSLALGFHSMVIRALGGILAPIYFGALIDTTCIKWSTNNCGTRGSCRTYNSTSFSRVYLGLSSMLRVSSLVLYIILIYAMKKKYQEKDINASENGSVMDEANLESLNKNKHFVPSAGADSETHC

[2] = target: T2, Solute carrier organic anion transporter family member 1B3 (Homo sapiens, UniProt Q9NPD5); conditions: chinese hamster, cho, 10 µM
T2 sequence (Q9NPD5 whole entry): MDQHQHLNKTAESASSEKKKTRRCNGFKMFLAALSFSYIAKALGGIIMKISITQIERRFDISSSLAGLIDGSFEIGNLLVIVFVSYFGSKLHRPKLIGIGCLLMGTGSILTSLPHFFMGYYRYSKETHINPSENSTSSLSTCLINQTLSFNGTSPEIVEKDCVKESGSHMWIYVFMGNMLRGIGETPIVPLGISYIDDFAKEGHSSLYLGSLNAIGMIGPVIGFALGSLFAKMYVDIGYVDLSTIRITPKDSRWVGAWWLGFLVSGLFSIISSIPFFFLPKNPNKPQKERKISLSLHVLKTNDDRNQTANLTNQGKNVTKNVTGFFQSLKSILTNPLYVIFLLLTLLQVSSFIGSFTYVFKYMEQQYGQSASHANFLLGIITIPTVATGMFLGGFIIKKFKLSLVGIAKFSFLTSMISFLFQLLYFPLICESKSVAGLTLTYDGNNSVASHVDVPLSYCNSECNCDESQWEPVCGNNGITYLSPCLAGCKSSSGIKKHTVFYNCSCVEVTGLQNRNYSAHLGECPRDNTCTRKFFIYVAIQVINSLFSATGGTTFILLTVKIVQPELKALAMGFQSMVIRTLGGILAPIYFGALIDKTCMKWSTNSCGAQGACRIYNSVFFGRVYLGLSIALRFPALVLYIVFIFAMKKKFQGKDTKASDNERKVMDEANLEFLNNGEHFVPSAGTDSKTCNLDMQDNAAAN

Row | Structure (SMILES) | residual activity [1] [%] | residual activity [2] [%]
1 | COc1ccc(CC2c3cc(OC)c(OC)cc3CCN2C)cc1OC (centres undefined) [LAUDANOSINE] | 107.4 | 114.7
2 | Cc1ccc(N(CC2=NCCN2)c2cccc(O)c2)cc1.Cl [PHENTOLAMINE HYDROCHLORIDE] | 85.39 | 86.01
3 | CC(=O)O[C@@H]1CC[C@@]2(C)[C@@H](CC[C@@H]3[C@@H]2CC[C@]2(C)C(=O)CC[C@@H]32)C1 [ANDROSTERONE ACETATE] | 76.88 | 100.8
4 | CC(=O)OCC(=O)[C@@]1(O)CC[C@H]2[C@@H]3C[C@H](C)C4=CC(=O)C=C[C@]4(C)[C@H]3[C@@H](O)C[C@@]21C [METHYLPREDNISOLONE ACETATE] | 52.04 | 84.05
5 | COc1cc2c(cc1OC)[C@@H]1Cc3ccc(OC)c(OC)c3CN1CC2 [TETRAHYDROPALMATINE] | 186.7 | 106.9
6 | COC(=O)[C@H]1OC(=O)[C@H]2O[C@]23[C@]2(C)[C@H](CC[C@]13C)[C@]1(C)CCC(=O)C(C)(C)[C@@H]1C[C@H]2OC(C)=O | 32.74 | 97.12
7 | CC(=O)c1cc2c(cc1O)OC(C)(C)C=C2 | 84.54 | 88.13
8 | C[C@@H]1[C@H](O)[C@@H](C)/C=C/C=C/C=C/C=C/C=C/C=C/C=C/[C@H](O[C@@H]2O[C@H](C)[C@@H](O)[C@H](N)[C@@H]2O)C[C@@H]2O[C@](O)(C[C@@H](O)C[C@@H](O)[C@H](O)CC[C@@H](O)C[C@@H](O)CC(=O)O[C@H]1C)C[C@H](O)[C@H]2C(=O)O [AMPHOTERICIN B] | 89.01 | 99.53
9 | Sc1nc2ccccc2s1 [2-MERCAPTOBENZOTHIAZOLE] | 158.6 | 97.95
10 | NC(=O)NCCC[C@H](N)C(=O)O [L-CITRULLINE] | 135.1 | 119.7
11 | COc1c(N2CCNC(C)C2)c(F)cc2c(=O)c(C(=O)O)cn(C3CC3)c12 (centres undefined) [GATIFLOXACIN] | 121.9 | 96.61
12 | COc1c2ccoc2cc2oc(=O)ccc12 [BERGAPTEN] | 93.84 | 97.44
13 | CC1=CC2C(CC1=O)C(C)=CCC2C(C)C (centres undefined) [MUUROLLADIE-3-ONE] | 267.7 | 117.6
14 | O=C(O)CN(CCN(CC(=O)O)CC(=O)O)CC(=O)O [EDETIC ACID] | 81.77 | 82.24
15 | O=C(O)CCCN1C(=O)c2cccc3cccc(c23)C1=O | 113.1 | 112.7
16 | COc1c2occc2cc2ccc(=O)oc12 [METHOXSALEN] | 102.5 | 107.3
17 | CN(C)C(=S)SSC(=S)N(C)C [THIRAM] | 104.4 | 99.01
18 | O=C(O)c1cn(C2CC2)c2cc(N3CCNCC3)c(F)cc2c1=O [CIPROFLOXACIN] | 105.3 | 112.4
19 | Cc1cn([C@H]2C[C@H](N=[N+]=[N-])[C@@H](CO)O2)c(=O)[nH]c1=O [ZIDOVUDINE] | 134 | 95.75
20 | C[C@H](CCC(=O)O)[C@H]1CC[C@H]2[C@@H]3CC[C@@H]4CC(=O)CC[C@]4(C)[C@H]3C=C[C@]12C | 40.37 | 203.2
21 | Cc1cc(O)c2c(c1)C(=O)c1cccc(O)c1C2=O [CHRYSOPHANOL] | 128.6 | 93.35
22 | COc1c(O)cc2oc3cc(O)c(CC=C(C)C)c(O)c3c(=O)c2c1CC=C(C)C [MANGOSTIN] | 150.2 | 110.4
23 | CN(C)/N=N/c1[nH]cnc1C(N)=O [DACARBAZINE] | 97.65 | 90.13
24 | CC(=O)OCC1=C(C(=O)[O-])N2C(=O)[C@@H](NC(=O)CCC[C@@H](N)C(=O)O)[C@H]2SC1.[Na+] | 89.78 | 103.2

Row | Structure (SMILES) | residual activity [1] [%] | residual activity [2] [%]
25 | O=C1[C@H](CC[C@H](O)c2ccc(F)cc2)[C@@H](c2ccc(O)cc2)N1c1ccc(F)cc1 [EZETIMIBE] | 51.36 | 30.63
26 | CCCCSP(=O)(SCCCC)SCCCC [S,S,S,-TRIBUTYLPHOSPHOROTRITHIOATE] | 125.7 | 111.8
27 | Cc1ccc(S(=O)(=O)NC(=O)NN2CC3CCCC3C2)cc1 (centres undefined) [GLICLAZIDE] | 106.3 | 113.3
28 | OC[C@@H]1CCCN2CCCC[C@H]12 [LUPININE] | 114.4 | 90.27
29 | COc1cc(O)c2c(=O)c(O)c(-c3ccc(O)c(O)c3)oc2c1 [RHAMNETIN] | 90.81 | 99.02
30 | C=N[C@@H](C(=O)N[C@@H]1C(=O)N2[C@@H]1SC(C)(C)[C@@H]2C(=O)[O-])c1ccccc1.[Na+] | 110.5 | 54.33
31 | NC/C=C/C(=O)O [t-4-AMINOCROTONIC ACID (TACA)] | 119.6 | 94.21
32 | CON.Cl [METHOXYAMINE HYDROCHLORIDE] | 118.4 | 108.6
33 | C[C@H](C[C@@H](O)[C@@H]1OC1(C)C)[C@@H]1CC[C@]2(C)C3=CC[C@H]4C(C)(C)C(=O)CC[C@]4(C)[C@H]3CC[C@@]12C [NILOTICIN] | 72.03 | 113.7
34 | COc1ccc2c(c1)[nH]c1c(C)nccc12 [HARMINE] | 105.3 | 101.7
35 | NC[C@H]1O[C@H](O[C@H]2[C@H](O)[C@@H](O[C@H]3O[C@H](CO)[C@@H](O)[C@H](N)[C@H]3O)[C@H](N)C[C@@H]2N)[C@H](N)C[C@@H]1O [TOBRAMYCIN] | 197.1 | 105.2
36 | Cc1nnc(NS(=O)(=O)c2ccc(N)cc2)s1 [SULFAMETHIZOLE] | 89.01 | 100.6
37 | COc1ccc(C(=O)c2ccccc2)c(O)c1 [OXYBENZONE] | 225.4 | 128.4
38 | C[C@@H]1CC[C@@]2(OC1)O[C@H]1C[C@H]3[C@@H]4CC[C@H]5C[C@@H](O)CC[C@]5(C)[C@H]4CC[C@]3(C)[C@H]1[C@@H]2C [TIGOGENIN] | 97 | 106.8
39 | CC(C)[C@@H]1CC[C@@H](C)C[C@H]1OC(=O)c1ccccc1 [MENTHYL BENZOATE] | 100.9 | 101.1
40 | Cc1ncc(CNC(=O)N(CCCl)N=O)c(N)n1 [NIMUSTINE] | 121.9 | 112
41 | NC1=NCCN1CC(=O)O [CYCLOCREATINE] | 108.2 | 127.5
42 | O=C(CCCN1CCC2(CC1)C(=O)NCN2c1ccccc1)c1ccc(F)cc1 [SPIPERONE] | 168.8 | 108.9
43 | Cc1cc(O)c2c(c1O)C(=O)c1c(O)cc(C)c(O)c1C2=O [1,4,5,8-TETRAHYDROXY-2,6-DIMETHYLANTHROQUINONE] | 102.7 | 105.2
44 | CCOc1ccc(NC(C)=O)cc1 [PHENACETIN] | 55.67 | 98.3
45 | Cc1cccc2c3c(ccc12)C1=C(C(=O)C3=O)[C@@H](C)CO1 [DIHYDROTANSHINONE I] | 111.4 | 129.1
46 | COc1ccc(C(=O)c2ccc(O)cc2)c(O)c1O [2,3,4'-TRIHYDROXY-4-METHOXYBENZOPHENONE] | 114.8 | 112.1
47 | CC(C)C[C@H](NC(=O)[C@H](Cc1ccccc1)NC(=O)CNC(=O)CNC(=O)[C@@H](N)Cc1ccc(O)cc1)C(=O)O [ENKEPHALIN] | 84.58 | 87.68
